Data set [1] can be described thus: Human liver microsome stability. The following applies: pooled human liver microsomes 0.5 mg/mL, 1 μM compound, NADPH 1 mM, 37° C., 0-60 min. The format is in vitro ADME. The method, boiled down:
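Half-life came from elimination rate constant (negative slope of ln compound/internal standard area ratio over time), measured by cassette LC-MS after acetonitrile quench. Human liver microsome reactions, one replicate per compound, were initiated with NADPH (1 mM final) and sampled at six points up to 60 min.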
A general note: Liver microsomes are vesicles of endoplasmic reticulum, rich in cytochrome P450 enzymes.

Data set [2] has as its system HBV (HepG2.117 cell line, inducibly HBV producing). The data set is described as follows: Anti-HBV activity, intracellular HBV DNA by real-time PCR in HepG2.117 cell line. The format is cell-based, hepatitis B virus. The following applies: HepG2.117 cells, 3 days of treatment. The method, boiled down: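 First, HBV replication is induced in HepG2.117 cells by doxycycline absence. Next, serially diluted compound is added for 3 days. Finally, intracellular HBV DNA is quantified by HBV-specific real-time PCR.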
Background: Real-time PCR tracks product formation cycle by cycle.

The test system of a further data set is HepG2 or HepG2.117 cells. Briefly: Cytotoxicity, ATPlite Luminescence Assay. The format is cell-based, human. The following applies: 3-days incubation unless marked with *. The method, boiled down: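 Compounds were added to cells and incubated 3 or 4 days. ATP content was then measured by luminescence to gauge cell viability.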
Background: In ATP-based viability assays light output follows the ATP content of the culture.

What is called EC50 is the concentration that produces a half-maximal response. Low values mean higher potency in that assay, high ones lower potency in that assay. A word on the CC50: it is the concentration at which the toxic effect on the cells reaches its halfway point. Low readings indicate greater toxicity to the cells, high ones lower toxicity to the cells.

Structures are written as SMILES.

Consider `CC(c1ccc(S(C)(=O)=O)cc1)N1C[C@@H](C)n2nc3c(c2C1=O)CN(C(=O)c1ccc(Cl)c(Cl)c1)[C@H](C)C3` (single isomer, unassigned) [Compound 15B, (3R,7R)-2-(3,4-dichlorobenzoyl)-3,7-dimethyl-9-((S*)-1-(4-(methylsulfonyl)phenyl)ethyl)-1,2,3,4,8,9-hexahydropyrido[4′,3′:3,4]pyrazolo[1,5-a]pyrazin-10(7H)-one], for which the “HLM Metabolism t1/2” value in data set [1] is over 3 h. The same compound showed an EC50 in data set [2] of 0.019 µM. Moreover, the CC50 with HepG2 or HepG2.117 cells is over 50 µM.

Turning to `CC(c1ccc(S(N)(=O)=O)cc1)N1C[C@@H](C)n2nc3c(c2C1=O)CN(C(=O)c1ccc(Cl)c(Cl)c1)[C@H](C)C3` (single isomer, unassigned) [Compound 16B, 4-((S*)-1-((3R,7R)-2-(3,4-dichlorobenzoyl)-3,7-dimethyl-10-oxo-1,2,3,4,7,8-hexahydropyrido[4′,3′:3,4]pyrazolo[1,5-a]pyrazin-9(10H)-yl)ethyl)benzenesulfonamide], in data set [1], the “HLM Metabolism t1/2” value is over 3 h. The EC50 in data set [2] was 0.059 µM. This compound also displayed a CC50 in the data set on HepG2 or HepG2.117 cells of over 50 µM.

In the case of `CNS(=O)(=O)c1ccc(C(C)N2C[C@@H](C)n3nc4c(c3C2=O)CN(C(=O)c2ccc(Cl)c(Cl)c2)[C@H](C)C4)cc1` (single isomer, unassigned) [Compound 17B, 4-((S*)-1-((3R,7R)-2-(3,4-dichlorobenzoyl)-3,7-dimethyl-10-oxo-1,3,4,7,8,10-hexahydropyrido[4′,3′:3,4]pyrazolo[1,5-a]pyrazin-9(2H)-yl)ethyl)-N-methylbenzenesulfonamide], in data set [1], the “HLM Metabolism t1/2” value was determined as 1.6 h. The compound also came in with an EC50 in data set [2] of 0.026 µM. In the data set with HepG2 or HepG2.117 cells, this compound registered a CC50 of over 50 µM.

For the compound `CC(c1ccc(-c2ccn(C)n2)cc1)N1C[C@@H](C)n2nc3c(c2C1=O)CN(C(=O)c1ccc(Cl)c(C#N)c1)[C@H](C)C3` (single isomer, unassigned) [Compound 21B, 2-Chloro-5-((3R,7R)-3,7-dimethyl-9-((S*)-1-(4-(1-methyl-1H-pyrazol-3-yl)phenyl)ethyl)-10-oxo-1,2,3,4,7,8,9,10-octahydropyrido[4′,3′:3,4]pyrazolo[1,5-a]pyrazine-2-carbonyl)benzonitrile], the “HLM Metabolism t1/2” value in data set [1] stood at 2.5 h. Besides, the EC50 in data set [2] came out at 0.012 µM. Moreover, the CC50 with HepG2 or HepG2.117 cells is over 50 µM.

For `Cc1nnn(-c2ccc(C(C)N3C[C@@H](C)n4nc5c(c4C3=O)CN(C(=O)c3ccc(Cl)c(Cl)c3)[C@H](C)C5)cc2)n1` (single isomer, unassigned) [Compound 22B, (3R,7R)-2-(3,4-dichlorobenzoyl)-3,7-dimethyl-9-((S*)-1-(4-(5-methyl-2H-tetrazol-2-yl)phenyl)ethyl)-1,2,3,4,8,9-hexahydropyrido[4′,3′:3,4]pyrazolo[1,5-a]pyrazin-10(7H)-one], in data set [1], the “HLM Metabolism t1/2” value worked out at 2.13 h. In addition, the EC50 in data set [2] was found to be 0.02 µM. The compound also showed a 50% cytotoxic concentration (CC50) in the data set on HepG2 or HepG2.117 cells of over 50 µM.

Consider `CNC(=O)C(c1ccc(OC(F)F)cc1)N1C[C@@H](C)n2nc3c(c2C1=O)CN(C(=O)c1ccc(Cl)c(Cl)c1)[C@H](C)C3` (single isomer, unassigned) [Compound 23B, (S*)-2-((3R,7R)-2-(3,4-dichlorobenzoyl)-3,7-dimethyl-10-oxo-1,3,4,7,8,10-hexahydropyrido[4′,3′:3,4]pyrazolo[1,5-a]pyrazin-9(2H)-yl)-2-(4-(difluoromethoxy)phenyl)-N-methylacetamide], for which the “HLM Metabolism t1/2” value in data set [1] was over 3 h. Further, the EC50 in data set [2] was 0.24 µM. For the same compound, in the data set with HepG2 or HepG2.117 cells, half-maximal cytotoxicity (CC50) was put at 49.3 µM.

For `CNC(=O)c1ccc(C(C)N2C[C@@H](C)n3nc4c(c3C2=O)CN(C(=O)c2ccc(Cl)c(Cl)c2)[C@H](C)C4)cn1` (single isomer, unassigned) [Compound 24B, 5-((S*)-1-((3R,7R)-2-(3,4-dichlorobenzoyl)-3,7-dimethyl-10-oxo-1,3,4,7,8,10-hexahydropyrido[4′,3′:3,4]pyrazolo[1,5-a]pyrazin-9(2H)-yl)ethyl)-N-methylpicolinamide], the “HLM Metabolism t1/2” value in data set [1] is over 3 h. Moreover, a half-maximal response in data set [2] (EC50) required 0.02 µM. Besides, the CC50 in the data set with HepG2 or HepG2.117 cells was over 50 µM.

With `Cc1nnn(-c2ccc(C(C)N3C[C@@H](C)n4nc5c(c4C3=O)CN(C(=O)c3ccc(Cl)c(Cl)c3)[C@H](C)C5)cn2)n1` (single isomer, unassigned) [Compound 26B, (3R,7R)-2-(3,4-dichlorobenzoyl)-3,7-dimethyl-9-((S*)-1-(6-(5-methyl-2H-tetrazol-2-yl)pyridin-3-yl)ethyl)-1,2,3,4,8,9-hexahydropyrido[4′,3′:3,4]pyrazolo[1,5-a]pyrazin-10(7H)-one], in data set [1], the “HLM Metabolism t1/2” value came to 1.13 h. This compound registered an EC50 in data set [2] of 0.02 µM. Besides, the CC50 with HepG2 or HepG2.117 cells is over 50 µM.

As to `Cc1nnnn1-c1ccc(C(C)N2C[C@@H](C)n3nc4c(c3C2=O)CN(C(=O)c2ccc(Cl)c(Cl)c2)[C@H](C)C4)cn1` (single isomer, unassigned) [Compound 27B, (3R,7R)-2-(3,4-dichlorobenzoyl)-3,7-dimethyl-9-((S*)-1-(6-(5-methyl-1H-tetrazol-1-yl)pyridin-3-yl)ethyl)-1,2,3,4,8,9-hexahydropyrido[4′,3′:3,4]pyrazolo[1,5-a]pyrazin-10(7H)-one], the “HLM Metabolism t1/2” value in data set [1] was determined as 1.39 h. In data set [2], this compound gave an EC50 of 0.018 µM. In the data set with HepG2 or HepG2.117 cells, the CC50 is over 50 µM.

Regarding `CC(c1ccc(N2CCCS2(=O)=O)nc1)N1C[C@@H](C)n2nc3c(c2C1=O)CN(C(=O)c1ccc(Cl)c(C(F)(F)F)c1)[C@H](C)C3` (single isomer, unassigned) [Compound 28B, (3R,7R)-2-(4-chloro-3-(trifluoromethyl)benzoyl)-9-((S*)-1-(6-(1,1-dioxidoisothiazolidin-2-yl)pyridin-3-yl)ethyl)-3,7-dimethyl-1,2,3,4,8,9-hexahydropyrido[4′,3′: 3,4]pyrazolo[1,5-a]pyrazin-10(7H)-one], the “HLM Metabolism t1/2” value in data set [1] was found to be 2.37 h. This compound also returned an EC50 in data set [2] of 0.011 µM. Further, the CC50 with HepG2 or HepG2.117 cells was over 50 µM.

`CC(c1ccnc(Cl)c1)N1C[C@@H](C)n2nc3c(c2C1=O)CN(C(=O)c1ccc(Cl)c(Cl)c1)[C@H](C)C3` (single isomer, unassigned) [Compound 31B, (3R,7R)-9-((S*)-1-(2-chloropyridin-4-yl)ethyl)-2-(3,4-dichlorobenzoyl)-3,7-dimethyl-1,2,3,4,8,9-hexahydropyrido[4′,3′:3,4]pyrazolo[1,5-a]pyrazin-10(7H)-one]: the “HLM Metabolism t1/2” value in data set [1] came to 2.12 h. The EC50 in data set [2] is 0.019 µM. This compound also came in with a CC50 in the data set with HepG2 or HepG2.117 cells of 22.7 µM.

In the case of `CC(c1cc(F)ccn1)N1C[C@@H](C)n2nc3c(c2C1=O)CN(C(=O)c1ccc(Cl)c(Cl)c1)[C@H](C)C3` (single isomer, unassigned) [Compound 32B], in data set [1], the “HLM Metabolism t1/2” value came out at 2.23 h. In data set [2], the response was half-maximal at 0.088 µM (EC50). Also, in the data set on HepG2 or HepG2.117 cells, the CC50 was over 50 µM.

As for `CC(c1ccc(NS(C)(=O)=O)cn1)N1C[C@@H](C)n2nc3c(c2C1=O)CN(C(=O)c1ccc(Cl)c(C(F)(F)F)c1)[C@H](C)C3` (single isomer, unassigned) [Compound 33B, N-(6-((S*)-1-((3R,7R)-2-(4-chloro-3-(trifluoromethyl)benzoyl)-3,7-dimethyl-10-oxo-1,3,4,7,8,10-hexahydropyrido[4′,3′:3,4]pyrazolo[1,5-a]pyrazin-9(2H)-yl)ethyl)pyridin-3-yl)methanesulfonamide], the “HLM Metabolism t1/2” value in data set [1] is over 3 h. Moreover, the EC50 in data set [2] is 0.043 µM. In addition, in the data set with HepG2 or HepG2.117 cells, the CC50 was over 50 µM.

With `CC(c1cnc(C(F)(F)F)nc1)N1C[C@@H](C)n2nc3c(c2C1=O)CN(C(=O)c1ccc(Cl)c(Cl)c1)[C@H](C)C3` (single isomer, unassigned) [Compound 34B, (3R,7R)-2-(3,4-dichlorobenzoyl)-3,7-dimethyl-9-((S*)-1-(2-(trifluoromethyl)pyrimidin-5-yl)ethyl)-1,2,3,4,8,9-hexahydropyrido[4′,3′:3,4]pyrazolo[1,5-a]pyrazin-10(7H)-one], the “HLM Metabolism t1/2” value in data set [1] is over 3 h. The response in data set [2] was half-maximal at 0.052 µM (EC50). The compound also yielded a CC50 in the data set on HepG2 or HepG2.117 cells of 34.9 µM.

On to `CC(c1cnc(C(C)(C)O)nc1)N1C[C@@H](C)n2nc3c(c2C1=O)CN(C(=O)c1ccc(Cl)c(C(F)(F)F)c1)[C@H](C)C3` (single isomer, unassigned) [Compound 35B, (3R,7R)-2-(4-chloro-3-(trifluoromethyl)benzoyl)-9-((S*)-1-(2-(2-hydroxypropan-2-yl)pyrimidin-5-yl)ethyl)-3,7-dimethyl-1,2,3,4,8,9-hexahydropyrido[4′,3′:3,4]pyrazolo[1,5-a]pyrazin-10(7H)-one], for which the “HLM Metabolism t1/2” value in data set [1] is over 3 h. This compound also displayed an EC50 in data set [2] of 0.01 µM. The compound further came in with a CC50 in the data set with HepG2 or HepG2.117 cells of over 50 µM.

Consider `CC(c1cnc(C(C)(C)O)nc1)N1C[C@@H](C)n2nc3c(c2C1=O)CN(C(=O)c1ccc(Cl)c(Cl)c1)[C@H](C)C3` (single isomer, unassigned) [Compound 36B, (3R,7R)-2-(3,4-Dichlorobenzoyl)-9-((S*)-1-(2-(2-hydroxypropan-2-yl)pyrimidin-5-yl)ethyl)-3,7-dimethyl-1,2,3,4,8,9-hexahydropyrido[4′,3′:3,4]pyrazolo[1,5-a]pyrazin-10(7H)-one], for which, in data set [1], the “HLM Metabolism t1/2” value was over 3 h. Besides, the EC50 in data set [2] was determined as 0.029 µM. This compound also gave a CC50 in the data set on HepG2 or HepG2.117 cells of over 50 µM.

The values above are taken from patent US20240287070A1, “FUSED HETEROCYCLIC DERIVATIVES” (Janssen Sciences Ireland Unlimited Company, priority 2021, published 2024).
